The target of one assay is Mcl-1 (Homo sapiens (Human), UniProt Q07820). In words: Fluorescence polarization anisotropy (FPA) competition assay, FITC-Bak or FITC-Bim BH3 peptide. The assay is classed as binding. The note with it: read-out: Ki for Inhibition of Mcl-1 by FPA assay. (In general: Polarisation of emitted light reports the rotation of a fluorescent probe.)
The test system of assay [1] is H929 human cancer cell lines. The assay is described as follows: Cellular viability / proliferation (Cell TiterGlo, 72 h). In kind it is cell-based. The method in brief:
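Plating is at 1,000 cells/well in 10% FBS medium; after 24 h, compound is added as a 2-fold series starting at 50 μM with under 1% DMSO.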
In general terms: ATP-based viability assays read luminescence as a measure of living cells.

[2] abbreviates: Homo sapiens, NCI-H929, 72 h, read-out: GI50 on cellular proliferation of H929 human cancer cell lines, H929 cells, 72 h, Cell TiterGlo, 10% FBS.
The mark [3] stands for this setting: H929 cells, 72 h, Cell TiterGlo, 10% FBS, read-out: GI50 on cellular proliferation of H929 human cancer cell lines.

Where two headings read alike, the source gives them in different places.

As a reminder, the Ki is the dissociation constant of the complex between target and ligand, obtained from inhibition or displacement.

Chain of Mcl-1 (Q07820 172-327): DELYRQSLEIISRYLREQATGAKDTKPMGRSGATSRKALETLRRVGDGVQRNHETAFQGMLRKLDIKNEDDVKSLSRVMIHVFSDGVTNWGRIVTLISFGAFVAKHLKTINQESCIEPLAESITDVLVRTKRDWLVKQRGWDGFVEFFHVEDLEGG

Turning to `Cc1cc(OCCCc2c3n(c4c(-c5c(C)nn(C)c5C)c(Cl)ccc24)[C@H](C)CN(c2cccc4c(C(=O)O)nn(C)c24)C3=O)cc(C)c1Cl` [Example 59, (R)-7-(7-chloro-10-(3-(4-chloro-3,5-dimethylphenoxy)propyl)-4-methyl-1-oxo-6-(1,3,5-trimethyl-1H-pyrazol-4-yl)-3,4-dihydropyrazino[1,2-a]indol-2(1H)-yl)-1-methyl-1H-indazole-3-carboxylic acid], the inhibition constant (Ki) at Mcl-1 was below 1 nM. The GI50 in assay [1] (setting [2]) amounted to 280 nM.

Regarding `COCCn1ncc2c(C(=O)O)cc(N3CCCn4c(c(CCCOc5cc(C)c(Cl)c(C)c5)c5ccc(Cl)c(-c6c(C)nn(C)c6C)c54)C3=O)cc21` [Example 82, 6-[8-Chloro-11-[3-(4-chloro-3,5-dimethyl-phenoxy)propyl]-1-oxo-7-(1,3,5-trimethylpyrazol-4-yl)-4,5-dihydro-3H-[1,4]diazepino[1,2-a]indol-2-yl]-1-(2-methoxyethyl)indazole-4-carboxylic acid], at Mcl-1, the inhibitory constant (Ki) was below 1 nM. Also, in assay [1] (setting [2]), the GI50 is 4800 nM.

Regarding `Cc1cc(OCCCc2c3n(c4c(-c5c(C)nn(C)c5C)c(Cl)ccc24)[C@H](C)CN(c2cc(C(=O)O)c4cn(CCN5CCOCC5)nc4c2)C3=O)cc(C)c1Cl` [Example 57, (R)-6-(7-chloro-10-(3-(4-chloro-3,5-dimethylphenoxy)propyl)-4-methyl-1-oxo-6-(1,3,5-trimethyl-1H-pyrazol-4-yl)-3,4-dihydropyrazino[1,2-a]indol-2(1H)-yl)-2-(2-morpholinoethyl)-2H-indazole-4-carboxylic acid], the Ki on Mcl-1 is below 1 nM. The GI50 in assay [1] (setting [2]) is 1700 nM.

As for `Cc1cc(OCCCc2c3n(c4c(-c5c(C)nn(C)c5C)c(Cl)ccc24)[C@H](C)CN(c2cccc4ccc(C(=O)O)cc24)C3=O)cc(C)c1Cl` [Example 368, (P, R)-8-(7-Chloro-10-(3-(4-chloro-3,5-dimethylphenoxy)propyl)-4-methyl-1-oxo-6-(1,3,5-trimethyl-1H-pyrazol-4-yl)-3,4-dihydropyrazino[1,2-a]indol-2(1H)-yl)-2-naphthoic acid], at Mcl-1, the inhibition constant Ki was determined as 1.4 nM. The GI50 in assay [1] (setting [3]) came out at 620 nM.

On to `CCn1ccc2c(C(=O)O)cc(N3C[C@@H](C)n4c(c(CCCOc5cc(C)c(Cl)c(C)c5)c5ccc(Cl)c(-c6c(C)nn(C)c6C)c54)C3=O)cc21` [Example 99, (R)-6-(7-chloro-10-(3-(4-chloro-3,5-dimethylphenoxy)propyl)-4-methyl-1-oxo-6-(1,3,5-trimethyl-1H-pyrazol-4-yl)-3,4-dihydropyrazino[1,2-a]indol-2(1H)-yl)-1-ethyl-1H-indole-4-carboxylic acid], for which, on Mcl-1, the inhibition constant (Ki) was below 1 nM. Further, the GI50 in assay [1] (setting [3]) came to 2100 nM.

For `Cc1cc(OCCCc2c3n(c4c(-c5c(C)nn(C)c5C)c(Cl)ccc24)[C@H](C)CN(c2nn(C)c4ccc(C(=O)O)cc24)C3=O)cc(C)c1Cl` [Example 163, (R)-3-(7-Chloro-10-(3-(4-chloro-3,5-dimethylphenoxy)propyl)-4-methyl-1-oxo-6-(1,3,5-trimethyl-1H-pyrazol-4-yl)-3,4-dihydropyrazino[1,2-a]indol-2(1H)-yl)-1-methyl-1H-indazole-5-carboxylic acid], the inhibitory constant (Ki) at Mcl-1 is below 1 nM. In addition, the GI50 in assay [1] (setting [2]) came to 260 nM.

As to `Cc1nc(Cn2c(C(=O)O)cc3cccc(N4C[C@@H](C)n5c(c(CCCOc6cc(C)c(Cl)c(C)c6)c6ccc(Cl)c(-c7c(C)nn(C)c7C)c65)C4=O)c32)no1` [Example 314, 7-[(4R)-7-chloro-10-[3-(4-chloro-3,5-dimethyl-phenoxy)propyl]-4-methyl-1-oxo-6-(1,3,5-trimethylpyrazol-4-yl)-3,4-dihydropyrazino[1,2-a]indol-2-yl]-1-[(5-methyl-1,2,4-oxadiazol-3-yl)methyl]indole-2-carboxylic acid], the Ki at Mcl-1 is below 1 nM. For the same compound, the GI50 in assay [1] (setting [2]) was found to be 930 nM.

As to `Cc1cc(OCCCc2c3n(c4c(-c5c(C)nn(C)c5C)c(Cl)ccc24)CCCN(c2cc(C(=O)O)c4cn(CCN5CCOCC5)nc4c2)C3=O)cc(C)c1Cl` [Example 12, 6-[8-Chloro-11-[3-(4-chloro-3,5-dimethyl-phenoxy)propyl]-1-oxo-7-(1,3,5-trimethylpyrazol-4-yl)-4,5-dihydro-3H-[1,4]diazepino[1,2-a]indol-2-yl]-2-(2-morpholinoethyl)indazole-4-carboxylic acid], on Mcl-1, the inhibitory constant (Ki) was 1.2 nM. For the same compound, the GI50 in assay [1] (setting [2]) was determined as 8300 nM.

For `Cc1cc(OCCCc2c3n(c4c(-c5c(C)nn(C)c5C)c(Cl)ccc24)[C@H](C)CN(c2ccc(F)c4c(C(=O)O)c[nH]c24)C3=O)cc(C)c1Cl` [Example 438, (R)-7-(7-Chloro-10-(3-(4-chloro-3,5-dimethylphenoxy)propyl)-4-methyl-1-oxo-6-(1,3,5-trimethyl-1H-pyrazol-4-yl)-3,4-dihydropyrazino[1,2-a]indol-2(1H)-yl)-4-fluoro-1H-indole-3-carboxylic acid], the Ki on Mcl-1 came out at 1.1 nM. For the same compound, in assay [1] (setting [2]), the GI50 came to 2800 nM.

Take `Cc1cc(OCCCc2c3n(c4c(-c5c(C)nn(C)c5C)c(Cl)ccc24)[C@H](C)CN(c2cc(C(C)C)cc4cc(C(N)=O)n(C)c24)C3=O)cc(C)c1Cl` [Example 422, (R)-7-(7-Chloro-10-(3-(4-chloro-3,5-dimethylphenoxy)propyl)-4-methyl-1-oxo-6-(1,3,5-trimethyl-1H-pyrazol-4-yl)-3,4-dihydropyrazino[1,2-a]indol-2(1H)-yl)-5-isopropyl-1-methyl-1H-indole-2-carboxamide]: on Mcl-1, the Ki was below 1 nM. Also, the GI50 in assay [1] (setting [2]) stood at 830 nM.

Turning to `Cc1cc(OCCCc2c3n(c4c(-c5c(C)nn(C)c5C)c(Cl)ccc24)[C@H](C)CN(c2ccc(O)c4cc(C(=O)O)n(C)c24)C3=O)cc(C)c1Cl` [Example 321, (M, R)-7-(7-Chloro-10-(3-(4-chloro-3,5-dimethylphenoxy)propyl)-4-methyl-1-oxo-6-(1,3,5-trimethyl-1H-pyrazol-4-yl)-3,4-dihydropyrazino[1,2-a]indol-2(1H)-yl)-4-hydroxy-1-methyl-1H-indole-2-carboxylic acid], the Ki on Mcl-1 was below 1 nM. In addition, the GI50 in assay [1] (setting [3]) was determined as 1400 nM.

As to `Cc1cc(OCCCc2c3n(c4c(-c5c(C)nn(C)c5C)c(Cl)ccc24)[C@H](C)CN(c2cccc4cc(C(=O)O)n(C(C)c5ccccn5)c24)C3=O)cc(C)c1Cl` (stereo partly drawn) [Example 386, 7-((R)-7-Chloro-10-(3-(4-chloro-3,5-dimethylphenoxy)propyl)-4-methyl-1-oxo-6-(1,3,5-trimethyl-1H-pyrazol-4-yl)-3,4-dihydropyrazino[1,2-a]indol-2(1H)-yl)-1-(1-(pyridin-2-yl)ethyl)-1H-indole-2-carboxylic acid], the Ki on Mcl-1 is 3.2 nM. Besides, in assay [1] (setting [2]), the GI50 was 3100 nM.

For “(R)-3-(7-chloro-10-(3-(4-chloro-3,5-dimethylphenoxy)propyl)-6-(3,5-dimethyl-1-((1-methylpiperidin-4-yl)methyl)-1H-pyrazol-4-yl)-4-methyl-1-oxo-3,4-dihydropyrazino[1,2-a]indol-2(1H)-yl)-1-methyl-1H-indole-5-carboxylic acid [Example 146]”, the Ki on Mcl-1 came out at 4 nM. Besides, the GI50 in assay [1] (setting [3]) is 2400 nM.
